Columns and labels:
[1] = molecular target: NAMPT (human, recombinant, C-terminally His-tagged) (Homo sapiens, UniProt P43490); experiment: Time-Resolved Fluorescence Resonance Energy Transfer (TR-FRET) Binding Assay of NAMPT; conditions: without substrates; 6.8 nM NAMPT, 200 nM probe, 3 hours equilibration
Procedure, shortened: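 Read-out is the time-resolved FRET ratio Em520/Em495 (excitation 337 nm) between a terbium anti-His antibody (1 nM) on the enzyme and an Oregon Green 488-labelled nicotinamide-competitive inhibitor probe (200 nM). Enzyme was 6.8 nM, DMSO 2%, pH 7.5 HEPES buffer; 3 h room-temperature equilibration preceded reading.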

NAMPT = NAMPT (Homo sapiens, UniProt P43490); experiment: TR-FRET Binding Assay of NAMPT with PRPP; conditions: with 200 μM PRPP and 2.5 mM ATP; 2 nM NAMPT, 2 nM probe, 16 hours equilibration
Sequence of NAMPT (P43490 whole entry): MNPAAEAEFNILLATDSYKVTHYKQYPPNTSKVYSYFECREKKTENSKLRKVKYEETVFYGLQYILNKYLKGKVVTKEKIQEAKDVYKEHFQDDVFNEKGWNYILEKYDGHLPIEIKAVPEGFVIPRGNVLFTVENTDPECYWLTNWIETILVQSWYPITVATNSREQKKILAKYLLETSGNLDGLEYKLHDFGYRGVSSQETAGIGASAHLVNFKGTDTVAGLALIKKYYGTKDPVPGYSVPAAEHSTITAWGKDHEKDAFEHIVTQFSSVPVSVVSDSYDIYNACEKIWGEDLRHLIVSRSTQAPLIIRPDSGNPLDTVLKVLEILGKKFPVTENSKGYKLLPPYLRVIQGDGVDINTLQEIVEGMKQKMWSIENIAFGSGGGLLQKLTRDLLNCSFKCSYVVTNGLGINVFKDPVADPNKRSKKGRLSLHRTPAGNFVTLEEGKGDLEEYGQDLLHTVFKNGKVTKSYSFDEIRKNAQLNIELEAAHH
Procedure, shortened: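 NAMPT 2 nM + probe 2 nM + Tb-anti-His Ab 1 nM; PRPP 200 μM, ATP 2.5 mM, DMSO 2%; 16 h equilibration before TR-FRET read.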

PC3 cells = experiment: NAMPT Cell Proliferation Assay; assay type: cell-based; conditions: Homo sapiens, PC-3, 120 h, 5 days incubation, cell viability by Cell Titer Glo
Procedure, shortened: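 Proliferation of PC3 cells treated 5 days with a 10-fold compound series (top 10 μM) was quantified by Cell Titer Glo luminescence; IC50s were fitted from percent inhibition.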

Sequence of NAMPT (human, recombinant, C-terminally His-tagged) (P43490 whole entry): as above

SMILES	IC50 [1]	IC50 (NAMPT)	IC50 (PC3 cells)
O=C(CC1CCCC1)Nc1ccc(C(=O)NCc2ccn3ccnc3c2)c(F)c1 [Example 463, 4-[(cyclopentylacetyl)amino]-2-fluoro-N-(imidazo[1,2-a]pyridin-7-ylmethyl)benzamide]	314 nM	0.529 nM	234 nM
O=C(NCc1ccn2ccnc2c1)c1ccc(-c2ccc(N3CCOCC3)nc2)s1 [Example 464, N-(imidazo[1,2-a]pyridin-7-ylmethyl)-5-[6-(morpholin-4-yl)pyridin-3-yl]thiophene-2-carboxamide]	63.4 nM	0.169 nM	6.79 nM
CC1(Cn2cc(-c3ccc(C(=O)NCc4ccn5ccnc5c4)s3)cn2)CCCCO1 (stereo not drawn) [Example 465, N-(imidazo[1,2-a]pyridin-7-ylmethyl)-5-{1-[(2-methyltetrahydro-2H-pyran-2-yl)methyl]-1H-pyrazol-4-yl}thiophene-2-carboxamide]	13.8 nM	0.169 nM	0.319 nM
CC(C)(C)OC(=O)N1CCC(Cn2cc(-c3ccc(C(=O)NCc4ccn5ccnc5c4)s3)cn2)CC1 [Example 466, tert-butyl 4-[(4-{5-[(imidazo[1,2-a]pyridin-7-ylmethyl)carbamoyl]thiophen-2-yl}-1H-pyrazol-1-yl)methyl]piperidine-1-carboxylate]	74.9 nM	0.287 nM	4.31 nM
CC(C)CC(=O)N1CCC(c2ccc(C(=O)NCc3ccn4ccnc4c3)s2)C1 (stereo not drawn) [Example 467, N-(imidazo[1,2-a]pyridin-7-ylmethyl)-5-[1-(3-methylbutanoyl)pyrrolidin-3-yl]thiophene-2-carboxamide]	91.1 nM	0.278 nM	4.02 nM
CC(C)C(=O)NC1(c2ccc(C(=O)NCc3ccn4ccnc4c3)s2)CCC1 [Example 468, N-(imidazo[1,2-a]pyridin-7-ylmethyl)-5-{1-[(2-methylpropanoyl)amino]cyclobutyl}thiophene-2-carboxamide]	> 10000 nM	0.985 nM	2930 nM
CC(C)CC(=O)NC1(c2ccc(C(=O)NCc3ccn4ccnc4c3)s2)CCC1 [Example 469, N-(imidazo[1,2-a]pyridin-7-ylmethyl)-5-{1-[(3-methylbutanoyl)amino]cyclobutyl}thiophene-2-carboxamide]	> 10000 nM	0.432 nM	3380 nM
CC[C@H](C)C(=O)NC1(c2ccc(C(=O)NCc3ccn4ccnc4c3)s2)CCC1 [Example 470, N-(imidazo[1,2-a]pyridin-7-ylmethyl)-5-(1-{[(2S)-2-methylbutanoyl]amino}cyclobutyl)thiophene-2-carboxamide]	5580 nM	0.456 nM	936 nM
O=C(NC1(c2ccc(C(=O)NCc3ccn4ccnc4c3)s2)CCC1)c1ccccc1 [Example 471, 5-[1-(benzoylamino)cyclobutyl]-N-(imidazo[1,2-a]pyridin-7-ylmethyl)thiophene-2-carboxamide]	3440 nM	0.471 nM	6510 nM
O=C(CC(F)(F)F)NC1(c2ccc(C(=O)NCc3ccn4ccnc4c3)s2)CCC1 [Example 472, N-(imidazo[1,2-a]pyridin-7-ylmethyl)-5-{1-[(3,3,3-trifluoropropanoyl)amino]cyclobutyl}thiophene-2-carboxamide]	2860 nM	0.334 nM	963 nM
O=C(NCc1ccn2ccnc2c1)c1ccc(C2(NC(=O)C3CCOCC3)CCC2)s1 [Example 473, N-(1-{5-[(imidazo[1,2-a]pyridin-7-ylmethyl)carbamoyl]thiophen-2-yl}cyclobutyl)tetrahydro-2H-pyran-4-carboxamide]	> 10000 nM	1.01 nM	7850 nM
CC(C)(C)OC(=O)N1CC(Oc2ccc(C(=O)NCc3ccn4ccnc4c3)cc2)C1 [Example 474, tert-butyl 3-{4-[(imidazo[1,2-a]pyridin-7-ylmethyl)carbamoyl]phenoxyl}azetidine-1-carboxylate]	1980 nM	0.362 nM	879 nM
O=C(NCc1ccn2ccnc2c1)c1ccc(-c2cnn(CC3CCC3)c2)s1 [Example 475, 5-[1-(cyclobutylmethyl)-1H-pyrazol-4-yl]-N-(imidazo[1,2-a]pyridin-7-ylmethyl)thiophene-2-carboxamide]	9.76 nM	0.169 nM	6.92 nM
O=C(NCc1ccn2ccnc2c1)c1ccc(-c2cnn(CC3CCCO3)c2)o1 (stereo not drawn) [Example 476, N-(imidazo[1,2-a]pyridin-7-ylmethyl)-5-[1-(tetrahydrofuran-2-ylmethyl)-1H-pyrazol-4-yl]furan-2-carboxamide]	70.8 nM	0.194 nM	9.42 nM
O=C(NCc1ccn2ccnc2c1)c1ccc(-c2cnn(CC3CCCCO3)c2)o1 (stereo not drawn) [Example 477, N-(imidazo[1,2-a]pyridin-7-ylmethyl)-5-[1-(tetrahydro-2H-pyran-2-ylmethyl)-1H-pyrazol-4-yl]furan-2-carboxamide]	72.9 nM	0.235 nM	3.21 nM
O=C(NCc1ccn2ccnc2c1)c1ccc(-c2cnn(CC3CCOC3)c2)o1 (stereo not drawn) [Example 478, N-(imidazo[1,2-a]pyridin-7-ylmethyl)-5-[1-(tetrahydrofuran-3-ylmethyl)-1H-pyrazol-4-yl]furan-2-carboxamide]	192 nM	0.24 nM	31.2 nM
O=C(NCc1ccn2ccnc2c1)c1ccc(-c2cnn(CC3CCCOC3)c2)o1 (stereo not drawn) [Example 479, N-(imidazo[1,2-a]pyridin-7-ylmethyl)-5-[1-(tetrahydro-2H-pyran-3-ylmethyl)-1H-pyrazol-4-yl]furan-2-carboxamide]	63 nM	0.243 nM	8.08 nM
O=C(NCc1ccn2ccnc2c1)c1ccc(-c2cnn(CC3CCOCC3)c2)o1 [Example 480, N-(imidazo[1,2-a]pyridin-7-ylmethyl)-5-[1-(tetrahydro-2H-pyran-4-ylmethyl)-1H-pyrazol-4-yl]furan-2-carboxamide]	181 nM	0.342 nM	7.43 nM
O=C(NCc1ccn2ccnc2c1)c1ccc(-c2cnn(CC3CCC3)c2)o1 [Example 481, 5-[1-(cyclobutylmethyl)-1H-pyrazol-4-yl]-N-(imidazo[1,2-a]pyridin-7-ylmethyl)furan-2-carboxamide]	57.2 nM	0.176 nM	5.79 nM
CC1(Cn2cc(-c3ccc(C(=O)NCc4ccn5ccnc5c4)o3)cn2)COC1 [Example 482, N-(imidazo[1,2-a]pyridin-7-ylmethyl)-5-{1-[(3-methyloxetan-3-yl)methyl]-1H-pyrazol-4-yl}furan-2-carboxamide]	76.3 nM	0.259 nM	2.22 nM
CC(C)(O)Cn1cc(-c2ccc(C(=O)NCc3ccn4ccnc4c3)o2)cn1 [Example 483, 5-[1-(2-hydroxy-2-methylpropyl)-1H-pyrazol-4-yl]-N-(imidazo[1,2-a]pyridin-7-ylmethyl)furan-2-carboxamide]	130 nM	0.575 nM	12.4 nM
O=C(NCc1ccn2ccnc2c1)c1ccc(C2CCN(C(=O)c3ccco3)CC2)cc1 [Example 484, 4-[1-(furan-2-ylcarbonyl)piperidin-4-yl]-N-(imidazo[1,2-a]pyridin-7-ylmethyl)benzamide]	79.5 nM	0.19 nM	9.59 nM
O=C(NCc1ccn2ccnc2c1)c1ccc(-c2cnn(CC3CCNCC3)c2)s1 [Example 485, N-(imidazo[1,2-a]pyridin-7-ylmethyl)-5-[1-(piperidin-4-ylmethyl)-1H-pyrazol-4-yl]thiophene-2-carboxamide]	95.6 nM	0.205 nM	34.5 nM
CC(C)Cn1cc(-c2ccc(NC(=O)NCc3ccn4ccnc4c3)cc2)cn1 [Example 486, 1-(imidazo[1,2-a]pyridin-7-ylmethyl)-3-{4-[1-(2-methylpropyl)-1H-pyrazol-4-yl]phenyl}urea]	91.7 nM	0.232 nM	23.3 nM
CCCn1cc(-c2ccc(NC(=O)NCc3ccn4ccnc4c3)cc2)cn1 [Example 487, 1-(imidazo[1,2-a]pyridin-7-ylmethyl)-3-[4-(1-propyl-1H-pyrazol-4-yl)phenyl]urea]	143 nM	0.334 nM	83.3 nM
O=C(NCc1ccn2ccnc2c1)c1ccc(C2CCN(C(=O)c3cccs3)C2)cc1 (stereo not drawn) [Example 488, N-(imidazo[1,2-a]pyridin-7-ylmethyl)-4-[1-(thiophen-2-ylcarbonyl)pyrrolidin-3-yl]benzamide]	138 nM	0.544 nM	98.3 nM
O=C(NCc1ccn2ccnc2c1)c1ccc(Oc2ccccc2)cc1 [Example 489, N-(imidazo[1,2-a]pyridin-7-ylmethyl)-4-phenoxybenzamide]	1220 nM	0.263 nM	> 10000 nM
CC(C)C(=O)N1CC(c2ccc(C(=O)NCc3ccn4ccnc4c3)cc2)C1 [Example 490, N-(imidazo[1,2-a]pyridin-7-ylmethyl)-4-[1-(2-methylpropanoyl)azetidin-3-yl]benzamide]	753 nM	0.267 nM	89.9 nM

— patent US9187472B2 (AbbVie Inc., priority 2012, dated 2015)
